# Reference: patent publication US20180200257A1, “METHODS FOR THE TREATMENT OF INFLAMMATORY DISORDERS” (Galapagos NV, priority 2015, published 2018)
# Tested on: subjects with moderately to severely active RA who have an inadequate response to methotrexate (MTX)
# Assay: Study 2 (monotherapy) - Creatinine levels
# Assay type: in vivo, human
# Source text: Randomized, double-blind, placebo-controlled, multicenter, phase IIb dose finding study of Compound 1 (dosed as a [Compound 1:HCl:3H2O]) administered for 24 weeks as monotherapy to subjects with moderately to severely active rheumatoid arthritis who have an inadequate response to methotrexate alone
# Double-blind, placebo-controlled, monotherapy study in subjects with moderately to severely active RA who have an inadequate response to methotrexate (MTX) (oral or parenteral).
# 280 subjects randomized to one of 3 doses of Compound 1 (dosed as a [Compound 1:HCl:3H2O]) or to placebo, given once daily (q.d.).
# Twelve weeks of treatment with Compound 1 (dosed as a [Compound 1:HCl:3H2O]) at 50 mg, 100 mg, or 200 mg q.d.; or placebo. At Week 12, all subjects on placebo and the subjects on the 50 mg dose who have not achieved 20% improvement in swollen joint count (SJC66) and tender joint count (TJC68) will be assigned to 100 mg q.d. in a blinded fashion and will continue treatment until Week 24. Subjects in the other groups will maintain their randomized treatment until Week 24.
# Creatinine levels determination is available at Quest Diagnostics, Clinical Trials, Quest House, 125-135 Staines Road, Hounslow, Middlesex, TW3 3JB, United Kingdom under Catalogue n# 82565. For Study 3, the data are obtained at BARC Europe, 3B,Industrie Park, Zwijnaarde, B-9052 Ghent, Belgium.
# The Enzymatic method is based on the determination of sarcosine after conversion of creatinine with the aid of creatininase, creatinase, and sarcosine oxidase. The liberated hydrogen peroxide reacts with 4-aminophenazone and HTIB to form a quinone imine chromogen. The reaction is catalyzed by peroxidase. The color intensity is directly proportional to concentration of creatinine present and can be measured photometrically.
# Subjects in the other groups maintained their randomized treatment until Week 24.
# [1] = 50 mg q.d. non responders switching to 100 mg q.d. at week 12 (N = 15), week 0
# [2] = 50 mg q.d. non responders switching to 100 mg q.d. at week 12 (N = 15), week 1
# [3] = 50 mg q.d. non responders switching to 100 mg q.d. at week 12 (N = 15), week 2
# [4] = 50 mg q.d. non responders switching to 100 mg q.d. at week 12 (N = 15), week 4
# [5] = 50 mg q.d. non responders switching to 100 mg q.d. at week 12 (N = 15), week 8
# [6] = 50 mg q.d. non responders switching to 100 mg q.d. at week 12 (N = 15), week 12
# [7] = 50 mg q.d. non responders switching to 100 mg q.d. at week 12 (N = 15), week 16
# [8] = 50 mg q.d. non responders switching to 100 mg q.d. at week 12 (N = 15), week 20
# [9] = 50 mg q.d. non responders switching to 100 mg q.d. at week 12 (N = 15), week 24
# [10] = 50 mg q.d. responders (N = 57), week 0
# [11] = 50 mg q.d. responders (N = 57), week 1
# [12] = 50 mg q.d. responders (N = 57), week 2
# [13] = 50 mg q.d. responders (N = 57), week 4
# [14] = 50 mg q.d. responders (N = 57), week 8
# [15] = 50 mg q.d. responders (N = 57), week 12
# [16] = 50 mg q.d. responders (N = 57), week 16
# [17] = 50 mg q.d. responders (N = 57), week 20
# [18] = 50 mg q.d. responders (N = 57), week 24
# [19] = 100 mg q.d. (N = 70), 24 weeks results, week 0
# [20] = 100 mg q.d. (N = 70), 24 weeks results, week 1
# [21] = 100 mg q.d. (N = 70), 24 weeks results, week 2
# [22] = 100 mg q.d. (N = 70), 24 weeks results, week 4
# [23] = 100 mg q.d. (N = 70), 24 weeks results, week 8
# [24] = 100 mg q.d. (N = 70), 24 weeks results, week 12
# [25] = 100 mg q.d. (N = 70), 24 weeks results, week 16
# [26] = 100 mg q.d. (N = 70), 24 weeks results, week 20
# [27] = 100 mg q.d. (N = 70), 24 weeks results, week 24
# [28] = 200 mg q.d. (N = 69), 24 weeks results, week 0
# [29] = 200 mg q.d. (N = 69), 24 weeks results, week 1
# [30] = 200 mg q.d. (N = 69), 24 weeks results, week 2
# [31] = 200 mg q.d. (N = 69), 24 weeks results, week 4
# [32] = 200 mg q.d. (N = 69), 24 weeks results, week 8
# [33] = 200 mg q.d. (N = 69), 24 weeks results, week 12
# [34] = 200 mg q.d. (N = 69), 24 weeks results, week 16
# [35] = 200 mg q.d. (N = 69), 24 weeks results, week 20
# [36] = 200 mg q.d. (N = 69), 24 weeks results, week 24
# [37] = placebo switching to 100 mg q.d. at week 12 (N = 72), week 16
# [38] = placebo switching to 100 mg q.d. at week 12 (N = 72), week 20
# [39] = placebo switching to 100 mg q.d. at week 12 (N = 72), week 24
compound,measurement,setting,value
"O=C(Nc1nc2cccc(-c3ccc(CN4CCS(=O)(=O)CC4)cc3)n2n1)C1CC1 [Compound 1, cyclopropanecarboxylic acid {5-[4-(1,1-dioxo-thiomorpholin-4-ylmethyl)-phenyl]-[1,2,4]triazolo[1,5-a]pyridin-2-yl}-amide]",Creatinine Mean CFB,"50 mg q.d. (N = 72), week 0",0.00 µmol/L
same,Creatinine Mean percentage CFB,"50 mg q.d. (N = 72), week 0",0.00%
same,Creatinine Mean CFB,"50 mg q.d. (N = 72), week 1",0.42 µmol/L
same,Creatinine Mean percentage CFB,"50 mg q.d. (N = 72), week 1",1.10%
same,Creatinine Mean CFB,"50 mg q.d. (N = 72), week 2",1.25 µmol/L
same,Creatinine Mean percentage CFB,"50 mg q.d. (N = 72), week 2",2.59%
same,Creatinine Mean CFB,"50 mg q.d. (N = 72), week 4",1.32 µmol/L
same,Creatinine Mean percentage CFB,"50 mg q.d. (N = 72), week 4",3.01%
same,Creatinine Mean CFB,"50 mg q.d. (N = 72), week 8",2.20 µmol/L
same,Creatinine Mean percentage CFB,"50 mg q.d. (N = 72), week 8",4.34%
same,Creatinine Mean CFB,"50 mg q.d. (N = 72), week 12",3.16 µmol/L
same,Creatinine Mean percentage CFB,"50 mg q.d. (N = 72), week 12",6.02%
same,Creatinine Mean CFB,[1],0.0 µmol/L
same,Creatinine Mean percentage CFB,[1],0.00%
same,Creatinine Mean CFB,[2],1.1 µmol/L
same,Creatinine Mean percentage CFB,[2],2.03%
same,Creatinine Mean CFB,[3],2.0 µmol/L
same,Creatinine Mean percentage CFB,[3],3.77%
same,Creatinine Mean CFB,[4],0.6 µmol/L
same,Creatinine Mean percentage CFB,[4],1.58%
same,Creatinine Mean CFB,[5],6.2 µmol/L
same,Creatinine Mean percentage CFB,[5],10.36%
same,Creatinine Mean CFB,[6],0.0 µmol/L
same,Creatinine Mean percentage CFB,[6],0.74%
same,Creatinine Mean CFB,[7],5.9 µmol/L
same,Creatinine Mean percentage CFB,[7],11.14%
same,Creatinine Mean CFB,[8],4.5 µmol/L
same,Creatinine Mean percentage CFB,[8],8.07%
same,Creatinine Mean CFB,[9],5.2 µmol/L
same,Creatinine Mean percentage CFB,[9],9.28%
same,Creatinine Mean CFB,[10],0.0 µmol/L
same,Creatinine Mean percentage CFB,[10],0.00%
same,Creatinine Mean CFB,[11],0.2 µmol/L
same,Creatinine Mean percentage CFB,[11],0.86%
same,Creatinine Mean CFB,[12],1.0 µmol/L
same,Creatinine Mean percentage CFB,[12],2.27%
same,Creatinine Mean CFB,[13],1.5 µmol/L
same,Creatinine Mean percentage CFB,[13],3.40%
same,Creatinine Mean CFB,[14],1.1 µmol/L
same,Creatinine Mean percentage CFB,[14],2.67%
same,Creatinine Mean CFB,[15],4.0 µmol/L
same,Creatinine Mean percentage CFB,[15],7.51%
same,Creatinine Mean CFB,[16],1.9 µmol/L
same,Creatinine Mean percentage CFB,[16],3.91%
same,Creatinine Mean CFB,[17],3.6 µmol/L
same,Creatinine Mean percentage CFB,[17],7.19%
same,Creatinine Mean CFB,[18],1.6 µmol/L
same,Creatinine Mean percentage CFB,[18],3.16%
same,Creatinine Mean CFB,[19],0.0 µmol/L
same,Creatinine Mean percentage CFB,[19],0.00%
same,Creatinine Mean CFB,[20],1.2 µmol/L
same,Creatinine Mean percentage CFB,[20],3.00%
same,Creatinine Mean CFB,[21],1.5 µmol/L
same,Creatinine Mean percentage CFB,[21],3.21%
same,Creatinine Mean CFB,[22],1.1 µmol/L
same,Creatinine Mean percentage CFB,[22],3.23%
same,Creatinine Mean CFB,[23],3.2 µmol/L
same,Creatinine Mean percentage CFB,[23],5.79%
same,Creatinine Mean CFB,[24],1.7 µmol/L
same,Creatinine Mean percentage CFB,[24],3.96%
same,Creatinine Mean CFB,[25],2.9 µmol/L
same,Creatinine Mean percentage CFB,[25],6.44%
same,Creatinine Mean CFB,[26],2.3 µmol/L
same,Creatinine Mean percentage CFB,[26],4.63%
same,Creatinine Mean CFB,[27],2.0 µmol/L
same,Creatinine Mean percentage CFB,[27],4.17%
same,Creatinine Mean CFB,"100 mg q.d. (N = 70), week 0",0.00 µmol/L
same,Creatinine Mean percentage CFB,"100 mg q.d. (N = 70), week 0",0.00%
same,Creatinine Mean CFB,"100 mg q.d. (N = 70), week 1",1.19 µmol/L
same,Creatinine Mean percentage CFB,"100 mg q.d. (N = 70), week 1",3.00%
same,Creatinine Mean CFB,"100 mg q.d. (N = 70), week 2",1.48 µmol/L
same,Creatinine Mean percentage CFB,"100 mg q.d. (N = 70), week 2",3.21%
same,Creatinine Mean CFB,"100 mg q.d. (N = 70), week 4",1.10 µmol/L
same,Creatinine Mean percentage CFB,"100 mg q.d. (N = 70), week 4",3.23%
same,Creatinine Mean CFB,"100 mg q.d. (N = 70), week 8",3.19 µmol/L
same,Creatinine Mean percentage CFB,"100 mg q.d. (N = 70), week 8",5.79%
same,Creatinine Mean CFB,"100 mg q.d. (N = 70), week 12",1.75 µmol/L
same,Creatinine Mean percentage CFB,"100 mg q.d. (N = 70), week 12",3.96%
same,Creatinine Mean CFB,[28],0.0 µmol/L
same,Creatinine Mean percentage CFB,[28],0.00%
same,Creatinine Mean CFB,[29],4.7 µmol/L
same,Creatinine Mean percentage CFB,[29],8.07%
same,Creatinine Mean CFB,[30],5.0 µmol/L
same,Creatinine Mean percentage CFB,[30],8.56%
same,Creatinine Mean CFB,[31],4.3 µmol/L
same,Creatinine Mean percentage CFB,[31],7.37%
same,Creatinine Mean CFB,[32],4.8 µmol/L
same,Creatinine Mean percentage CFB,[32],8.70%
same,Creatinine Mean CFB,[33],3.8 µmol/L
same,Creatinine Mean percentage CFB,[33],7.96%
same,Creatinine Mean CFB,[34],5.3 µmol/L
same,Creatinine Mean percentage CFB,[34],9.81%
same,Creatinine Mean CFB,[35],6.6 µmol/L
same,Creatinine Mean percentage CFB,[35],13.11%
same,Creatinine Mean CFB,[36],3.5 µmol/L
same,Creatinine Mean percentage CFB,[36],8.41%
same,Creatinine Mean CFB,"200 mg q.d. (N = 69), week 0",0.00 µmol/L
same,Creatinine Mean percentage CFB,"200 mg q.d. (N = 69), week 0",0.00%
same,Creatinine Mean CFB,"200 mg q.d. (N = 69), week 1",4.68 µmol/L
same,Creatinine Mean percentage CFB,"200 mg q.d. (N = 69), week 1",8.07%
same,Creatinine Mean CFB,"200 mg q.d. (N = 69), week 2",4.99 µmol/L
same,Creatinine Mean percentage CFB,"200 mg q.d. (N = 69), week 2",8.56%
same,Creatinine Mean CFB,"200 mg q.d. (N = 69), week 4",4.28 µmol/L
same,Creatinine Mean percentage CFB,"200 mg q.d. (N = 69), week 4",7.37%
same,Creatinine Mean CFB,"200 mg q.d. (N = 69), week 8",4.82 µmol/L
same,Creatinine Mean percentage CFB,"200 mg q.d. (N = 69), week 8",8.70%
same,Creatinine Mean CFB,"200 mg q.d. (N = 69), week 12",3.80 µmol/L
same,Creatinine Mean percentage CFB,"200 mg q.d. (N = 69), week 12",7.96%
same,Creatinine Mean CFB,[37],1.9 µmol/L
same,Creatinine Mean percentage CFB,[37],3.61%
same,Creatinine Mean CFB,[38],2.7 µmol/L
same,Creatinine Mean percentage CFB,[38],5.14%
same,Creatinine Mean CFB,[39],4.6 µmol/L
same,Creatinine Mean percentage CFB,[39],8.41%
